Here are results for eight compounds from ChEMBL document CHEMBL1144734, “Inhibitory effect of xanthones isolated from the pericarp of Garcinia mangostana L. on rat basophilic leukemia RBL-2H3 cell degranulation” (Bioorg Med Chem, 2008).

Active and inactive are the calls of the source. The calls are words filed in the database; no cut-off is given here.

In experiment [1] the target is Mitogen-activated protein kinase 3 (ERK1), Rattus norvegicus (UniProt P21708). The experiment is described as follows: Inhibition of ERK1 phosphorylation in IgE-sensitized rat RBL2H3 cells […] at 100 uM after 30 mins. The settings on record: RBL-2H3.
Chain of Mitogen-activated protein kinase 3 (ERK1), Rattus norvegicus (P21708 whole entry, looked up): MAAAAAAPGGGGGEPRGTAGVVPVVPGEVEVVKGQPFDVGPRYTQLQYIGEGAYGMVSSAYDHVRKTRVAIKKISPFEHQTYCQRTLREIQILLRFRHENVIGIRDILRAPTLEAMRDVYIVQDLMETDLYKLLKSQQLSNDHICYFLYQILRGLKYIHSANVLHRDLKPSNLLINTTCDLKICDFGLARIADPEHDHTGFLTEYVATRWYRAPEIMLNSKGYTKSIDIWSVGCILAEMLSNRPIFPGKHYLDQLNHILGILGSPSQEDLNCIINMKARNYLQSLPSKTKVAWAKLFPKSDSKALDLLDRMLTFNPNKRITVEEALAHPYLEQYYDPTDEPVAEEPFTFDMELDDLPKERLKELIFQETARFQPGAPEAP
Experiment [2] addresses Mitogen-activated protein kinase 1 (ERK2), Rattus norvegicus (UniProt P63086). The experiment is described as follows: Inhibition of ERK2 phosphorylation in IgE-sensitized rat RBL2H3 cells […] at 2 uM after 30 mins. The settings on record: RBL-2H3.
The test system of experiment [3] is RBL-2H3. The experiment is described as follows: Inhibition of A23187-induced degranulation in rat RBL2H3 cells. The format is functional, cell-based.
In experiment [4] the test system is RBL-2H3. The experiment is described as follows: Inhibition of p38 phosphorylation in IgE-sensitized rat RBL2H3 cells at 20 uM. The format is cell-based.
The test system of experiment [5] is RBL-2H3. The experiment is described as follows: Decrease in FcepsilonRI-induced intracellular ROS level in IgE-sensitized rat RBL2H3 cells assessed as DCF oxidation at 20 uM after 30 mins. The format is functional, cell-based.
For experiment [6], the system named is RBL-2H3. The experiment is described as follows: Inhibition of DNP-BSA stimulated histamine release in IgE-sensitized rat RBL2H3 cells after 30 mins. The experiment is classed as functional, cell-based.
Experiment [7] deals with RBL-2H3. In words: Inhibition of DNP-BSA induced intracellular calcium elevation in IgE-sensitized rat RBL2H3 cells at 20 uM after 30 mins. The experiment is classed as functional, cell-based. A general note: Calcium flux is commonly read through the fluorescence of an indicator in the cells.
Experiment [8] has as its target Tyrosine-protein kinase Lyn (Rattus norvegicus) (UniProt Q07014). The experiment is described as follows: Inhibition of Lyn phosphorylation in IgE-sensitized rat RBL2H3 cells at 20 uM. The format is cell-based. The following applies: RBL-2H3.
The target of experiment [9] is Mitogen-activated protein kinase 3 (ERK1), Rattus norvegicus (UniProt P21708). In words: Inhibition of ERK1 phosphorylation in IgE-sensitized rat RBL2H3 cells at 20 uM. The settings on record: RBL-2H3.
Experiment [10] concerns the target Mitogen-activated protein kinase 1 (ERK2), Rattus norvegicus (UniProt P63086). The experiment is described as follows: Inhibition of ERK2 phosphorylation in IgE-sensitized rat RBL2H3 cells at 20 uM. The following applies: RBL-2H3.
Experiment [11] addresses Mitogen-activated protein kinase 9 (JNK2), Rattus norvegicus (UniProt P49186). In words: Inhibition of JNK2 phosphorylation in IgE-sensitized rat RBL2H3 cells at 20 uM. The following applies: RBL-2H3.
In experiment [12] the target is Tyrosine-protein kinase SYK (Rattus norvegicus) (UniProt Q64725). In words: Inhibition of Syk phosphorylation in IgE-sensitized rat RBL2H3 cells at 20 uM. The format is cell-based. The following applies: RBL-2H3.
Chain of Tyrosine-protein kinase SYK (Rattus norvegicus) (Q64725 whole entry, looked up): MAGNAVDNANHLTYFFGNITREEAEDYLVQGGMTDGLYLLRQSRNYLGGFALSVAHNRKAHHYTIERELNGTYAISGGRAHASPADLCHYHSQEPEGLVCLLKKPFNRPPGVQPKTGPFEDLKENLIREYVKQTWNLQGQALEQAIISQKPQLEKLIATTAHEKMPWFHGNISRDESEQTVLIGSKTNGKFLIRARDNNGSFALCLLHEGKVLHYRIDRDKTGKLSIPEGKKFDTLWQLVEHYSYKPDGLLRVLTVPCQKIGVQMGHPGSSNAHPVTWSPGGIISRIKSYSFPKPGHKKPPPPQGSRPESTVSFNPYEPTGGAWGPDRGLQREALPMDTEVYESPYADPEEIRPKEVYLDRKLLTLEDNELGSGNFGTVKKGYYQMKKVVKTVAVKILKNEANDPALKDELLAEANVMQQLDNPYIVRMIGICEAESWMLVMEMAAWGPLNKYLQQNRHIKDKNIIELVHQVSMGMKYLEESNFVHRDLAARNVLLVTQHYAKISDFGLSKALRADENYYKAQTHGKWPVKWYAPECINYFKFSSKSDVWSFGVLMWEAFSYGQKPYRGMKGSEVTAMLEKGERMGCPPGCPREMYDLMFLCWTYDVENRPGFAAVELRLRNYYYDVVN
Experiment [13] concerns the target Mitogen-activated protein kinase 8 (JNK1), Rattus norvegicus (UniProt P49185). In words: Inhibition of JNK1 phosphorylation in IgE-sensitized rat RBL2H3 cells at 20 uM. The following applies: RBL-2H3.
Experiment [14] concerns Radical scavenging activity. The experiment is described as follows: Antioxidant activity assessed as DPPH radical scavenging activity. The experiment is classed as functional. (Loss of DPPH colour is used to gauge radical scavenging.)
Experiment [15] has as its target Mitogen-activated protein kinase 1 (ERK2), Rattus norvegicus (UniProt P63086). In words: Inhibition of ERK2 phosphorylation in IgE-sensitized rat RBL2H3 cells […] at 100 uM after 30 mins. The following applies: RBL-2H3.
Experiment [16] concerns the target Mitogen-activated protein kinase 3 (ERK1), Rattus norvegicus (UniProt P21708). The experiment is described as follows: Inhibition of ERK1 phosphorylation in IgE-sensitized rat RBL2H3 cells […] at 2 uM after 30 mins. The settings on record: RBL-2H3.
Experiment [17] concerns Phospholipase C-gamma-2, Rattus norvegicus. In words: Inhibition of PLC-gamma2 phosphorylation in IgE-sensitized rat RBL2H3 cells at 20 uM. The following applies: RBL-2H3.
For experiment [18], the system named is Phospholipase C-gamma-1, Rattus norvegicus. The experiment is described as follows: Inhibition of PLC-gamma1 phosphorylation in IgE-sensitized rat RBL2H3 cells at 20 uM. The following applies: RBL-2H3.
The target of experiment [19] is Tyrosine-protein kinase SYK (Rattus norvegicus) (UniProt Q64725). The experiment is described as follows: Inhibition of ERK1 phosphorylation in IgE-sensitized rat RBL2H3 cells […] at 50 uM after 30 mins. The format is cell-based. The following applies: RBL-2H3.
Experiment [20] shares this target. In words: Inhibition of ERK2 phosphorylation in IgE-sensitized rat RBL2H3 cells […] at 50 uM after 30 mins. The format is cell-based. The settings on record: RBL-2H3.

Chain of Mitogen-activated protein kinase 9 (JNK2), Rattus norvegicus (P49186 whole entry, looked up): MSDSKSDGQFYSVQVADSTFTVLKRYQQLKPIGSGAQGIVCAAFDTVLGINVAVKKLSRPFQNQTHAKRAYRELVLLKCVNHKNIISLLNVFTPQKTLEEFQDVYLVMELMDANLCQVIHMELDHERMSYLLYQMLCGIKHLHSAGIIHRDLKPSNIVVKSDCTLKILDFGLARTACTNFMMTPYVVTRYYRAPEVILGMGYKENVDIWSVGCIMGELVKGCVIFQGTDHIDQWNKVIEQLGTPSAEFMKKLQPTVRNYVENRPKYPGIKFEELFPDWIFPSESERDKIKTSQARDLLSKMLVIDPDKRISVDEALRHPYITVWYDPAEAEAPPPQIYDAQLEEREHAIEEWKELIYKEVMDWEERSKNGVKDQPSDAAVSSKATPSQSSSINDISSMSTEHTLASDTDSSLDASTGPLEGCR
Chain of Mitogen-activated protein kinase 8 (JNK1), Rattus norvegicus (P49185 whole entry, looked up): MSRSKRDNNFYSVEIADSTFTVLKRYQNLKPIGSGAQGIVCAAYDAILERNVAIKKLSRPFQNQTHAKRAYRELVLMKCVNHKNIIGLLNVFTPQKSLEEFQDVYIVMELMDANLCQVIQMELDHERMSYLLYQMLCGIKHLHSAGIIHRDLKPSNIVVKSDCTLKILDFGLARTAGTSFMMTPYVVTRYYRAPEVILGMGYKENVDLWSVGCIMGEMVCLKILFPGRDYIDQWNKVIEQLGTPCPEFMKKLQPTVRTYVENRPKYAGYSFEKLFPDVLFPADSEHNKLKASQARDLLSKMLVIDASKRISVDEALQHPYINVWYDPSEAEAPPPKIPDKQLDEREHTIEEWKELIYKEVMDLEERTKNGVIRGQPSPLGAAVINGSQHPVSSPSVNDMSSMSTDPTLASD
Chain of Tyrosine-protein kinase Lyn (Rattus norvegicus) (Q07014 whole entry): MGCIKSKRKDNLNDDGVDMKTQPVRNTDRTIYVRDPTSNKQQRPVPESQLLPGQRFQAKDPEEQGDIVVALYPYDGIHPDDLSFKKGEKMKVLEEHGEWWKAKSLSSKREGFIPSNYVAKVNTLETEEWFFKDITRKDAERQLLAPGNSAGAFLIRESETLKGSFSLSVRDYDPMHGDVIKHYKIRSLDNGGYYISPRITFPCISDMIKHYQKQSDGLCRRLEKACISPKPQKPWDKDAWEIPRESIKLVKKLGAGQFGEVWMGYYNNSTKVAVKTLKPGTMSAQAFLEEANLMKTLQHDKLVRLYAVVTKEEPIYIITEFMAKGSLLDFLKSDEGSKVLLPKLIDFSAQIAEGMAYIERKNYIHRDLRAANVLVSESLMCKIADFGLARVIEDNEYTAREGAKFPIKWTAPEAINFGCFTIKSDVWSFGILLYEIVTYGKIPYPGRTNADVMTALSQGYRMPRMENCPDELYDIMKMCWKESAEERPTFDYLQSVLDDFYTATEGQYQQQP
Chain of Mitogen-activated protein kinase 1 (ERK2), Rattus norvegicus (P63086 whole entry, looked up): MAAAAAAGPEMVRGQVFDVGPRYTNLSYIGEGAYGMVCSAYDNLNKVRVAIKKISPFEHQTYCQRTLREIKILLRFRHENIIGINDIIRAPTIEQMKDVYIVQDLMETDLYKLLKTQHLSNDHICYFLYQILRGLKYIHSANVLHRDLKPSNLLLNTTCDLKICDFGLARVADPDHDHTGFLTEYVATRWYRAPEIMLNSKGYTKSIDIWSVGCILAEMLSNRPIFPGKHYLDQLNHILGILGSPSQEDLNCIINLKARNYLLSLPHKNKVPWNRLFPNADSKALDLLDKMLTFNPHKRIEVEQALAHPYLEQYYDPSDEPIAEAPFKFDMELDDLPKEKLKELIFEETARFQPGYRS

Consider `CC(=O)c1c(O)c(C)c(O)c(Cc2c(O)c3c(c(C(=O)/C=C/c4ccccc4)c2O)OC(C)(C)C=C3)c1O`, for which the result in experiment [1] and in experiment [2] was inactive.

For `COc1c(O)cc2oc3cc(O)c(CC=C(C)C)c(O)c3c(=O)c2c1CC=C(C)C`, the outcome in experiment [3], in experiment [4], in experiment [5], in experiment [8], in [11] and in [13] was inactive. The Activity entry in [6] is “Dose-dependent effect”. The result in experiment [7], in experiment [9], in [10] and in experiment [12] was Active.

In the case of `CC(C)=CCc1c(O)cc2oc3cc(O)c(O)c(CC=C(C)C)c3c(=O)c2c1O`, the result in experiment [3], in [4], in experiment [8], in experiment [11] and in [13] was inactive. In addition, the outcome in experiment [5], in experiment [7], in [9], in experiment [10], in experiment [14] and in experiment [12] was Active. For the same compound, the Activity entry in [6] is “Dose-dependent effect”.

Consider `COc1ccc2c(c1)c(C1=C(c3c[nH]c4ccccc34)C(=O)NC1=O)cn2CCCN(C)C`, for which the result in experiment [15] and in experiment [16] was inactive.

On to `O=c1cc(N2CCOCC2)oc2c(-c3ccccc3)cccc12`, for which, in experiment [3], the result was Active. Further, the outcome in experiment [2] was inactive.

In the case of `COc1cc2oc3cc(O)c(OC)c(CC=C(C)C)c3c(=O)c2c(O)c1CC=C(C)C`, the outcome in experiment [3], in experiment [4], in experiment [5], in experiment [8], in [11] and in experiment [13] was inactive. Moreover, in [6], the Activity entry is “Dose-dependent effect”. Further, the outcome in experiment [7], in experiment [9], in experiment [10], in [17], in experiment [18] and in experiment [12] was Active.

Turning to `COc1c(C[C@@H](C)OC(=O)Oc2ccc(O)cc2)c2c3c(C[C@@H](C)OC(=O)c4ccccc4)c(OC)c(=O)c4c(O)cc(OC)c(c5c(OC)cc(O)c(c1=O)c52)c43`, the outcome in experiment [19] and in experiment [20] was inactive.

As to `CN(C)C[C@H]1CCn2c(c(C3=C(c4cn(C)c5ccccc45)C(=O)NC3=O)c3ccccc32)C1`, the outcome in [1] and in experiment [15] was inactive.
